From paper PMC5603512, “Discovery, Semisynthesis, Antiparasitic and Cytotoxic Evaluation of 14-Membered Resorcylic Acid Lactones and Their Derivatives” (Scientific Reports, 2017)

Key:
Plasmodium falciparum = assay: Antiplasmodial assay (PicoGreen growth inhibition in infected human erythrocytes); format: cell-based; conditions: Erythrocyte, in vitro, W2 and 3D7 strains cultured, strain of the values not stated, read-out: Plasmodium falciparum IC50
Protocol: Activity against the causative agent of malaria was performed by culturing human erythrocytes and infecting them with P. falciparum, as described by Trager and Jensen[36]. Briefly, the W2 (Chloroquine resistant) and 3D7 (Chloroquine sensitive) strains of P. falciparum were cultured in RPMI 1640 medium (Sigma-Aldrich, USA) supplemented with 10% human serum (from O+ blood) at a hematocrit of 2% erythrocytes (O+) at 37 °C in a gas mixture of 5% CO2, 5% O2, and 90% N2. Parasites were synchronized by a temperature cycling technique as described by Almanza et al.[37]

Leishmania donovani = assay: Antileishmanial assay (PicoGreen); format: cell-based; conditions: in vitro, read-out: Leishmania donovani IC50
Protocol: The anti-leishmania activity was evaluated following the protocol described by Calderon et al.[39], using the fluorescent DNA intercalator PicoGreen (Invitrogen, USA). The species responsible for visceral leishmaniasis, L. donovani, was used for the assays.

Trypanosoma cruzi = assay: Antitrypanosomal assay (beta-galactosidase reporter, intracellular amastigotes in Vero cells); format: cell-based; conditions: Tulahuen clone C4, intracellular amastigotes in Vero cells, 120 h; for IC50: Trypanosoma cruzi, read-out: Trypanosoma cruzi IC50; for all read-outs here: key: I: Inactive
Protocol: Briefly, the expression of the reporter gene for beta-galactosidase (β-Gal) in the Tulahuen clone C4 of T. cruzi is assessed by colorimetry at 570 nm, which correlates with the parasite growth. Assays were performed on the intracellular amastigote form of the parasite infecting African green monkey kidney (Vero) cells, incubated for 120 h at 37 °C with 5% CO2.

[1] = Cytotoxicity SRB assay, HCT-116; conditions: human
Protocol: (§1) All of the compounds were also evaluated for their cytotoxic properties against six human cancer cell lines (lung carcinoma epithelian (A549), colon carcinoma (HCT-116), pancreatic carcinoma (BXPC-3), breast cancer (MCF-7), cervical epithelium (HeLa), and erythroleukemic (K562)) and a human umbilical vein endothelial cell (HUVEC) line (Table 2).
(§2) The cytotoxicity against HCT-116, BXPC-3, HeLa, MCF-7, A-549, and HUVEC cell lines was evaluated using the SRB method. The cytotoxicity against K562 and Vero cell lines was evaluated using the MTT method. Adriamycin was used as a positive control. All cells were cultivated in T-75 flasks containing 10% Fetal Bovine Serum (FBS), Dulbeco’s Modified Eagle Medium (DMEM) with 2 mM L-glutamine, and 1% penicillin-streptomycin at 37 °C in a humidified atmosphere with 5% CO2. For SRB assay, cells in their log phase of growth were seeded into 96 well micro plates (4 × 10^4 cells per well) and followed by treating with test samples at 10 μM or DMSO. After incubation at 37 °C for 72 h, the cells were fixed with the cold 20% (w/v) TCA for 2 h and stained with Sulforhodamine B (SRB) dye for 0.5 h. The protein-bound dye is dissolved in Tris base solution for OD determination at 540 nm on an ELISA Plate Reader. For MTT assay, cells (5 × 10^3 cells per well) were plated in 96 well micro plates. After cell attachment overnight, new medium containing test compounds or DMSO was added. The plate was incubated for 48 h at 37 °C and incubated with 3-(4,5-dimethylthiazol-2-yl)-2,5-diphenyltetrazolium bromide (MTT) for additional 2–4 hours. The assay plate was then read at 490 nm on an ELISA Plate Reader. The data were obtained from experiments carried out in triplicate.

[2] = Cytotoxicity SRB assay, HeLa; conditions: human
Protocol: as §1, §2

[3] = Cytotoxicity SRB assay, A-549; conditions: human
Protocol: as §1, §2

[4] = Cytotoxicity SRB assay, HUVEC; conditions: human
Protocol: as §1, §2

[5] = Cytotoxicity against the panel of six human cancer cell lines and HUVEC
Protocol: as §1, §2

[6] = Toxicity against Vero cells (MTT); format: cell-based, African green monkey; conditions: African green monkey, MTT, 48 h
Protocol: (§3) It should be emphasized that toxicity is a major concern of drug discovery and development. The above active compounds were evaluated for in vitro toxicity against a mammalian kidney cell line (Vero). The selectivity index (SI) was used as the evaluation parameter of drug potential of the test samples by comparing the toxicity on the Vero cell line (CC50) and the selective inhibitory effect on P. falciparum, L. donovani or T. cruzi (IC50) calculated here as CC50/IC50.
(§4) Adriamycin was used as a positive control.

Vero cells = assay: Toxicity against Vero cells (MTT); format: cell-based, African green monkey; conditions: in vitro toxicity against mammalian kidney cell line (Vero)
Protocol: as §3, §4

[7] = Cytotoxicity SRB assay, BXPC-3; conditions: human
Protocol: as §1, §2

[8] = Cytotoxicity SRB assay, MCF-7; conditions: human
Protocol: as §1, §2

[9] = Cytotoxicity MTT assay, K562; conditions: human
Protocol: as §1, §2

[10] = Chemical stability / interconversion in solvents; format: physicochemical; conditions: MeOH, EtOH, MeOH-d4 (except H2O), stationary state, within a week
Protocol: Compounds 1–6 and 11–27 were designed and synthesized through one or two-step semisynthetic reaction with high yields ranging from 65–95% from 7 and 8 (Fig. 1). The structures of new derivatives 12, 14–19, 21–22, 24, and 27 were identified by extensive spectroscopic methods including HRESIMS, ^1H NMR, and ^13C NMR. Compound 1 was prepared in yield of 95% through one-step acetonide reaction from 8. Other acetonide derivatives (11, 17, 18, 20, 23, 25, and 26) were also prepared with the same yields. Chlorination of compound 8 with sulfuryl chloride[33] followed by selective reduction with 10% Pd-C under H2 atmosphere led to the natural compound 2 (68%, yield). Acylation reaction was carried out by reaction of anhydride with the corresponding materials (1–3, and 6–8) in high yields (85–95%). In order to prepare 6, oxidation of the allyl alcohol 8 was examined under various oxidation conditions (PCC, PDC, MnO2, DMP, and IBX). However, only DMP and IBX enabled the selective oxidation of the allyl alcohol to give 6 in 65% and 35% yields, respectively (Fig. 3). […] Compounds 3–6 are diastereomers differing from each other by the absolute configurations of the 4′, 5′-diol chiral centers. The proportions of compounds 3–6 were in dynamic equilibrium, and the final ratios of 3–6 were approximately 8: 2: 5: 6 (Fig. 4). […]

P. falciparum lines 3D7 = tested on: P. falciparum lines 3D7; parameters: method as in PMID 20429578, PMID 20429578; conditions: line 3D7; read-out: IC50 against P. falciparum line 3D7; cited from earlier work
P. falciparum lines Dd2 = conditions: line Dd2; read-out: IC50 against P. falciparum line Dd2; cited from earlier work
[11] = Vero cells (mammalian kidney cell line)
[12] = BXPC-3 pancreatic carcinoma cells
[13] = HUVEC (umbilical vein endothelial cells)

SMILES | IC50 (Plasmodium falciparum) | IC50 (Leishmania donovani) | IC50 [5] | CC50 at 48 h [6, 11] | IC50 at 72 h ([1]; HCT-116 colon carcinoma cells) | IC50 at 72 h [7, 12] | IC50 at 72 h ([2]; HeLa cervical epithelium cells) | IC50 at 72 h ([8]; MCF-7 breast cancer cells) | IC50 at 72 h ([3]; A-549 lung carcinoma cells) | IC50 at 48 h ([9]; K562 erythroleukemic cells) | IC50 at 72 h [4, 13] | other results
COc1cc(O)c2c(c1)/C=C/C[C@H]1OC(C)(C)O[C@@H]1C(=O)/C=C/C[C@H](C)OC2=O [Compound 23] | > 30.7 µM | > 15.7 µM | < 10 µM |  |  |  |  |  |  |  |  | Trypanosoma cruzi IC50 (Trypanosoma cruzi): I; IC50 at 72 h [1]: 3.51 µM; IC50 at 72 h [2]: 6.59 µM; IC50 at 72 h [3]: 9.75 µM; IC50 at 72 h [4]: 7.51 µM
COc1cc2c(c(OC(=O)c3ccco3)c1)C(=O)O[C@@H](C)C/C=C/[C@H](OC(=O)c1ccco1)[C@@H](OC(=O)c1ccco1)[C@@H](OC(=O)c1ccco1)C/C=C/2 [Compound 15] | 22.2 µM | > 15.7 µM |  | 1570 µM |  |  |  |  |  |  |  | Trypanosoma cruzi IC50 (Trypanosoma cruzi): I; Toxicity (in words) (Vero cells): non-toxic
COc1cc2c(c(OC(C)=O)c1)C(=O)O[C@@H](C)C/C=C/C(=O)[C@@H](OC(C)=O)[C@@H](OC(C)=O)C/C=C/2 [Compound 21] | > 30.7 µM | 3.69 µM | < 10 µM | 5.8 µM | > 10 µM | > 10 µM | 6.95 µM | > 10 µM | > 10 µM | > 10 µM | 4.52 µM | 
COc1cc(O)c2c(c1)/C=C/C[C@H](O)[C@H](O)C(=O)/C=C/C[C@H](C)OC2=O [Compound 6] | 14.9 µM | 1.93 µM | < 10 µM | 3.2 µM | > 10 µM | 8.47 µM | > 10 µM | > 10 µM | > 10 µM | > 10 µM | 8.59 µM | Stability in protic solvents [10]: subtle chemical conversion of 6 to 3–5
COc1cc(O)c2c(c1)/C=C/C[C@H](O)[C@H](O)C(=O)/C=C\C[C@H](C)OC2=O [Compound 7] | 11 µM | 2.21 µM | < 10 µM | < 1 µM | 1.09 µM | 5.07 µM | > 10 µM | > 10 µM | > 10 µM | > 10 µM | > 10 µM | 
COc1cc2c(c(OC(C)=O)c1)C(=O)O[C@@H](C)C/C=C/[C@H](OC(C)=O)[C@@H](OC(C)=O)[C@@H](OC(C)=O)C/C=C/2 [Compound 13] | 6.95 µM | > 15.7 µM |  | 427 µM | > 10 µM | > 10 µM | > 10 µM | > 10 µM | > 10 µM | > 10 µM | > 10 µM | Trypanosoma cruzi IC50 (Trypanosoma cruzi): I; Toxicity (in words) (Vero cells): non-toxic
COc1cc(O)c2c(c1)/C=C/C[C@@H](O)[C@H](O)C(=O)/C=C/C[C@H](C)OC2=O [Compound 3] | > 30.7 µM | 9.11 µM | < 10 µM |  | > 10 µM | > 10 µM | 7.18 µM | > 10 µM | > 10 µM | > 10 µM |  | Trypanosoma cruzi IC50 (Trypanosoma cruzi): I; Stability in protic solvents [10]: quite stable
COc1cc(O)c2c(c1)/C=C/C[C@H](OC(C)=O)[C@H](OC(C)=O)[C@@H](OC(C)=O)/C=C/C[C@H](C)OC2=O [Compound 12] | 8.36 µM | 15.7 µM |  | 1520 µM | > 10 µM | > 10 µM | > 10 µM | > 10 µM | > 10 µM | > 10 µM | > 10 µM | IC50 (Trypanosoma cruzi): 17.2 µM; Toxicity (in words) (Vero cells): non-toxic
COc1cc(O)c2c(c1)/C=C/C[C@H](OC(C)=O)[C@H](OC(C)=O)C(=O)/C=C\C[C@H](C)OC2=O [Compound 27] | > 30.7 µM | 3.14 µM | < 10 µM | < 1 µM | 2.83 µM |  | 3.85 µM |  | 7.3 µM |  | 5.9 µM | 
COc1cc(O)c2c(c1)C=CCC1OC(C)(C)OC1C(=O)C=CCC(C)OC2=O (centres unmarked) [Compound 26] | 8.95 µM | 1.24 µM | < 10 µM |  |  |  |  |  |  |  |  | CC50 at 48 h [6]: < 1 µM; IC50 at 72 h [1]: 9.16 µM; IC50 at 72 h [7]: 7.22 µM; IC50 at 72 h [2]: 4.02 µM; IC50 at 72 h [8]: > 10 µM; IC50 at 72 h [3]: > 10 µM; IC50 at 48 h [9]: > 10 µM; IC50 at 72 h [4]: 4.81 µM
COc1cc(O)c2c(c1)/C=C/C[C@@H]1OC(C)(C)O[C@@H]1C(=O)/C=C/C[C@H](C)OC2=O [Compound 20] | > 30.7 µM | 6.46 µM | < 10 µM |  |  |  |  |  |  |  |  | CC50 at 48 h [6]: < 1 µM; IC50 at 72 h [1]: > 10 µM; IC50 at 72 h [7]: > 10 µM; IC50 at 72 h [2]: 7.21 µM; IC50 at 72 h [8]: > 10 µM; IC50 at 72 h [3]: > 10 µM; IC50 at 48 h [9]: > 10 µM; IC50 at 72 h [4]: 9.78 µM
COc1cc(O)c2c(c1)/C=C/C[C@H](O)[C@H](O)[C@@H](O)CCC[C@H](C)OC2=O [Paecilomycin E, paecilomycin E] |  |  |  |  |  |  |  |  |  |  |  | IC50 (P. falciparum lines 3D7): 0.02 µM; IC50 (P. falciparum lines Dd2): 8.8 µM
COc1cc2c(c(OC(C)=O)c1)C(=O)O[C@@H](C)C/C=C/[C@@H]1OC(C)(C)O[C@H]1[C@@H](OC(C)=O)C/C=C/2 [Compound 11] | 1.84 µM | 9.22 µM |  | 339 µM | > 10 µM | > 10 µM | > 10 µM | > 10 µM | > 10 µM | > 10 µM | > 10 µM | IC50 (Trypanosoma cruzi): 11.9 µM; Toxicity (in words) (Vero cells): non-toxic
COc1cc(O)c2c(c1)/C=C/C[C@H](O)[C@H](O)[C@H](O)CCC[C@H](C)OC2=O [Paecilomycin F, paecilomycin F] |  |  |  |  |  |  |  |  |  |  |  | IC50 (P. falciparum lines 3D7): 1.1 µM; IC50 (P. falciparum lines Dd2): 1.7 µM
